Publication PMC11823594, “Durlobactam in combination with β-lactams to combat Mycobacterium abscessus” (Antimicrobial Agents and Chemotherapy, 2024)
Like-named read-outs stand apart in the source and are kept apart here.

Columns and labels:
BlaMab = BlaMab (Mycobacterium abscessus, UniProt B1MCI3); experiment: Ki,app for the β-lactamase; assay type: biochemical
PBP B = PBP B (Mycobacterium abscessus, UniProt B1MP31); experiment: Mass spectrometry of covalent adduct formation; assay type: binding; details: protein:drug 1:20, 2 h; mass accuracy ±5 Da; (−) = no change
PBP B, sequence (B1MP31 entry or part of it): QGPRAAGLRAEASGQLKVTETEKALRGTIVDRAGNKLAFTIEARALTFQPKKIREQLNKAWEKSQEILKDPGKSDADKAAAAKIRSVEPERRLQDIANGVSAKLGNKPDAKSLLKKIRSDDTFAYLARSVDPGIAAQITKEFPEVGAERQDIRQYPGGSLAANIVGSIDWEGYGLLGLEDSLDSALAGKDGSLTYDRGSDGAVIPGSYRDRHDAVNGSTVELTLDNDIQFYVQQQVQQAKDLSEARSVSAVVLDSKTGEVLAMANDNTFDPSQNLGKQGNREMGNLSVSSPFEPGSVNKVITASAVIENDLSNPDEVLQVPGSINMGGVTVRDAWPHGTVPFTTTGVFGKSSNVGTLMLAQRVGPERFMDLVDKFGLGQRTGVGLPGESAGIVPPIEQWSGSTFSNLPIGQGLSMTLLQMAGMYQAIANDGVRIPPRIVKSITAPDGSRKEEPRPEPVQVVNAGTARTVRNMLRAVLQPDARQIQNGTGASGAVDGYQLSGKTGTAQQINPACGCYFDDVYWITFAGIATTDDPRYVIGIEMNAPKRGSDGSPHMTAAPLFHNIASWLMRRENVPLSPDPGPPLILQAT
Method: Truncated sequences of LDT1-5, DDC, PBP B, and PBP-lipo (Δ1–41) were generated by Celtek Biosciences and cloned into the pET28(a) + vector with a tobacco etch virus (TEV) protease cleavage site before the start codon. Clones were transformed into Escherichia coli BL21 (DE3) and grown to an OD600 of 0.6–0.8. […] Cell pellets were collected and stored at −20°C overnight, then resuspended in a buffer containing 50 mM Tris (pH 8.0), 400 mM sodium chloride, and 1 mM Tris (2-carboxyethyl) phosphine hydrochloride (TCEP), followed by sonication and centrifugation. The supernatant was purified using a His Prep FF 16/10 column (GE Healthcare) and eluted with 500 mM imidazole. Eluted protein was dialyzed overnight at 4°C in a buffer with 50 mM Tris (pH 8.0), 150 mM sodium chloride, and 0.5 mM TCEP in the presence of His-tagged TEV protease. To remove the His tag, the mixture was passed over the His Prep FF 16/10 column again.
(§1) The purified proteins listed above were incubated at room temperature with β-lactams or BLIs at a molar ratio of 1:20 for 2 h. The reactions were then quenched with acetonitrile and diluted to 1 mL with 0.1% formic acid in water. Samples were analyzed using a quadrupole time-of-flight (Q-TOF) Waters Synapt-G2-Si electrospray ionization mass spectrometer (ESI-MS) and a Waters Acquity H class ultra-performance liquid chromatography (UPLC) system, equipped with a BEH C18 1.7 µm column (2.1 × 50 mm). The MS was tuned with the following settings: capillary voltage set at 3 kV, sampling cone at 35 V, source offset at 35, source temperature of 100°C, desolvation temperature of 500°C, cone gas flow rate at 100 L/h, desolvation gas flow rate at 800 L/h, and nebulizer set at 6.0. The mobile phases consisted of 0.1% formic acid in water and 0.1% formic acid in 100% acetonitrile, with gradient elution from 10% to 90% of […] over 11 min. The system’s mass accuracy was ±5 Da.

LDT5 = LDT5 (Mycobacterium abscessus, UniProt B1MM58); experiment: Steady-state kinetics with nitrocefin (Ki,app); assay type: biochemical; details: in parentheses in Table 3
LDT5, sequence (B1MM58 entry or part of it): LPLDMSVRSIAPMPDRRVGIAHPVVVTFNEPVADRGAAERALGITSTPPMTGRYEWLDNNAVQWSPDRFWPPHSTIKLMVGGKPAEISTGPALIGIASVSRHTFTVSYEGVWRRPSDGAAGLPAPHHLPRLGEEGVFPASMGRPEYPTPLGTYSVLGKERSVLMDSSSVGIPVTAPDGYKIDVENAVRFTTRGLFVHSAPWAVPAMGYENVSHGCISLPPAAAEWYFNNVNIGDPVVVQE
Method: Steady-state kinetic studies were conducted using purified LDTs and PBPs (LDT1-5, PBP B, PBP-lipo, and DDC) as previously described ([20]). The assays were performed using a BioTek Synergy2 multimode reader in conjunction with Gen5 analysis software. […] To determine reaction velocities, a 0.25 cm path length was employed. The steady-state kinetic parameters (Vmax, kcat, and Km) were obtained by fitting the data to the Henri-Michaelis-Menten equation using a nonlinear least-squares fit in Origin 8.1 software (OriginLab, Northampton, MA). The reaction rate (v) at a given substrate concentration ([S]) was calculated according to the following equations: […]
(§2) Changes in absorbance at 482 nm were measured over a period of 0–30 min for each concentration of β-lactams and BLIs. Data were linearized using a Dixon plot, plotting the inverse changes in absorbance (1/ΔA) against the concentrations of β-lactams and BLIs. The observed Ki,app was determined directly from the Dixon plot, and these values were corrected for substrate concentration and affinity for the LDT using the following equation:
(§3) Ki,app=observed Ki,app/1+[NCF]/Km NCF

LDT2 [1] = target: T1, LDT2 (Mycobacterium abscessus, UniProt B1MMQ4); experiment: Mass spectrometry of covalent adduct formation; assay type: binding; details: protein:drug 1:20, 2 h; mass accuracy ±5 Da; (−) = no change
T1 sequence (B1MMQ4 entry or part of it): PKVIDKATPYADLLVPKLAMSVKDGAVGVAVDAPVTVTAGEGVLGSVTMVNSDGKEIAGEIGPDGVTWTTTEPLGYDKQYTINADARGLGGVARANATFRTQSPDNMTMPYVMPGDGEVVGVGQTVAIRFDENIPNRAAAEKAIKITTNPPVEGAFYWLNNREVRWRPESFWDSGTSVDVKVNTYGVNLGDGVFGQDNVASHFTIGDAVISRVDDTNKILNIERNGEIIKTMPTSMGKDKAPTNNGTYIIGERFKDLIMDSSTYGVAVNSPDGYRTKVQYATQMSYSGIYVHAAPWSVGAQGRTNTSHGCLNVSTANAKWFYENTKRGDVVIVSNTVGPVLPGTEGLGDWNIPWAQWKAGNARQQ
Method: (§4) Truncated sequences of LDT1-5, DDC, PBP B, and PBP-lipo (Δ1–41) were generated by Celtek Biosciences and cloned into the pET28(a) + vector with a tobacco etch virus (TEV) protease cleavage site before the start codon. Clones were transformed into Escherichia coli BL21 (DE3) and grown to an OD600 of 0.6–0.8. Protein expression was induced with 0.25 mM isopropyl β-d-1-thiogalactopyranoside (IPTG) and incubated for 18 h at 18°C. Cell pellets were collected and stored at −20°C overnight, then resuspended in a buffer containing 50 mM Tris (pH 8.0), 400 mM sodium chloride, and 1 mM Tris (2-carboxyethyl) phosphine hydrochloride (TCEP), followed by sonication and centrifugation. The supernatant was purified using a His Prep FF 16/10 column (GE Healthcare) and eluted with 500 mM imidazole. Eluted protein was dialyzed overnight at 4°C in a buffer with 50 mM Tris (pH 8.0), 150 mM sodium chloride, and 0.5 mM TCEP in the presence of His-tagged TEV protease. To remove the His tag, the mixture was passed over the His Prep FF 16/10 column again.
as §1

LDT3 = LDT3 (Mycobacterium abscessus, UniProt B1MHQ4); experiment: Mass spectrometry of covalent adduct formation; assay type: binding; details: protein:drug 1:20, 2 h; mass accuracy ±5 Da; (−) = no change
LDT3, sequence (B1MHQ4 entry or part of it): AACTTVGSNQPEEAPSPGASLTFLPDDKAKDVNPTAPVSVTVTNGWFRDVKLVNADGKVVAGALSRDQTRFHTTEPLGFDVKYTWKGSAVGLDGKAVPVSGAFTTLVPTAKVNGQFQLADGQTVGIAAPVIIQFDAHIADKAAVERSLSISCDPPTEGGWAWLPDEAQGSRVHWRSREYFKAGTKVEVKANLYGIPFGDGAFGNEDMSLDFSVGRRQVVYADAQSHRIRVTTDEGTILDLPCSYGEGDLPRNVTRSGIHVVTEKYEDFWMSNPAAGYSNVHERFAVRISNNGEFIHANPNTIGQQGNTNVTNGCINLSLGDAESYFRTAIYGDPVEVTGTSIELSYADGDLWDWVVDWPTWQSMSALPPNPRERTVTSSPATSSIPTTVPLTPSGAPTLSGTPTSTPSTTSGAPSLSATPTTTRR
Method: as §4, §1

LDT1 = LDT1 (Mycobacterium abscessus, UniProt B1MDC1); experiment: Steady-state kinetics with nitrocefin (Ki,app); assay type: biochemical; details: for Ki: Ki,app LDT1, nitrocefin at 5 × Km; for Ratio of fCss,avg to Ki,app, LDT1: in parentheses in Table 3
LDT1, sequence (B1MDC1 entry or part of it): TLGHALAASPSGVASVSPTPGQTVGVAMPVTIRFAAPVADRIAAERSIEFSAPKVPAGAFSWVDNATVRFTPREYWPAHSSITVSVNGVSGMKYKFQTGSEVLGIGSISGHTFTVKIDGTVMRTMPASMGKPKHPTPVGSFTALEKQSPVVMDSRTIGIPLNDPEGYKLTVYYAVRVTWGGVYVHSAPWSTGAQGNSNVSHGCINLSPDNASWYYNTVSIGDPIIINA
Method: (§5) Steady-state kinetic studies were conducted using purified LDTs and PBPs (LDT1-5, PBP B, PBP-lipo, and DDC) as previously described ([20]). The assays were performed using a BioTek Synergy2 multimode reader in conjunction with Gen5 analysis software. Increasing concentrations of NCF (Δε482 = 17,400 M^⁻¹ cm^⁻¹) were used, while fixed concentrations of the LDTs and PBPs were monitored for changes in absorbance at 482 nm over a time period of 0 to 10 min. To determine reaction velocities, a 0.25 cm path length was employed. The steady-state kinetic parameters (Vmax, kcat, and Km) were obtained by fitting the data to the Henri-Michaelis-Menten equation using a nonlinear least-squares fit in Origin 8.1 software (OriginLab, Northampton, MA). The reaction rate (v) at a given substrate concentration ([S]) was calculated according to the following equations: […]
as §2, with “To determine the apparent inhibition constants (Ki,app) for β-lactams and BLIs, the following experimental condition was employed: NCF as a substrate at a concentration of 5 × Km, LDT/ PBP enzymes with fixed concentration, and β-lactams and BLIs with various concentrations. Changes” for “Changes”
as §3

LDT4 = LDT4 (Mycobacterium abscessus, UniProt B1MKW1); experiment: Steady-state kinetics with nitrocefin (Ki,app); assay type: biochemical; details: in parentheses in Table 3
LDT4, sequence (B1MKW1 entry or part of it): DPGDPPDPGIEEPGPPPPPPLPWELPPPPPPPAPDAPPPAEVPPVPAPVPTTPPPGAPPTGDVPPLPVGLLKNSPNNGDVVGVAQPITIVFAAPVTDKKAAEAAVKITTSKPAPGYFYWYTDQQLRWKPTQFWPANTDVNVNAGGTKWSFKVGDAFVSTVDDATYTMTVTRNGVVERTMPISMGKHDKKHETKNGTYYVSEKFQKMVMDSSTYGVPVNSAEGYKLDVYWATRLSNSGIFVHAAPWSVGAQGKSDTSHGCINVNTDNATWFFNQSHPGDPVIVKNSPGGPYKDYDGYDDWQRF
Method: as §5
as §2, with “To determine the apparent inhibition constants (Ki,app) for β-lactams and BLIs, the following experimental condition was employed: NCF as a substrate at a concentration of 5 × Km, LDT/ PBP enzymes with fixed concentration, and β-lactams and BLIs with various concentrations. Changes” for “Changes”
as §3

LDT2 [2] = target: T1, LDT2; experiment: Steady-state kinetics with nitrocefin (Ki,app); assay type: biochemical; details: for Ki: Ki,app LDT2, nitrocefin at 5 × Km; for Ratio of fCss,avg to Ki,app, LDT2: in parentheses in Table 3
Method: as §5
as §2, with “To determine the apparent inhibition constants (Ki,app) for β-lactams and BLIs, the following experimental condition was employed: NCF as a substrate at a concentration of 5 × Km, LDT/ PBP enzymes with fixed concentration, and β-lactams and BLIs with various concentrations. Changes” for “Changes”
as §3

[3] = read-out: Ki,app BlaMab (converted)

BlaMab, sequence (B1MCI3 entry or part of it): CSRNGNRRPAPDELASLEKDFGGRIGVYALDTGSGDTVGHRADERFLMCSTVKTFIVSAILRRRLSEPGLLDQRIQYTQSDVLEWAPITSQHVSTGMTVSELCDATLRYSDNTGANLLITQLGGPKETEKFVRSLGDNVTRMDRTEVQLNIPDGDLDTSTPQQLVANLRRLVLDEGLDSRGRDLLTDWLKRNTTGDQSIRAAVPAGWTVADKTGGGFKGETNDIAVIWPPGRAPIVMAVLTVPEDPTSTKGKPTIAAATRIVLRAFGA

Compound	Ki (BlaMab; [3]) [nM]	Observed MW (+ change in mw), PBP B (62,915) (PBP B)	Ratio of fCss,avg to Ki,app, LDT5 (LDT5)	Observed MW (+ change in mw), LDT2 (39,216) (LDT2 [1])	Observed MW (+ change in mw), LDT3 (44,795) (LDT3)	Ki (LDT1) [nM]	Ratio of fCss,avg to Ki,app, LDT1 (LDT1)	Ratio of fCss,avg to Ki,app, LDT4 (LDT4)	Ki (LDT2 [2]) [nM]	Ratio of fCss,avg to Ki,app, LDT2 (LDT2 [2])	Ki (BlaMab; read-out: Ki,app BlaMab) [nM]
C[C@@H](O)[C@H]1C(=O)N2C(C(=O)O)=C(SCCN=CN)C[C@H]12 [Imipenem, imipenem]	17000	63,215 (+300) Da	0.4	39,515 (+299) Da	44,794 (−) Da	6.68	5714	3	6.68	6667	
C[C@@H](O)[C@H]1C(=O)N2C(C(=O)O)=C(S[C@H]3CC[S@@+]([O-])C3)S[C@H]12 [Sulopenem, sulopenem]		63,264 (+349) Da	1.5	39,298 (+86) Da	45,143 (+349) Da			1.1	200	29	
CC1(C)S[C@@H]2[C@H](NC(=O)[C@H](N)c3ccc(O)cc3)C(=O)N2[C@H]1C(=O)O [Amoxicillin, amoxicillin]		63,280 (+365) Da			44,794 (−) Da						< 13700
C[C@@H](O)[C@H]1C(=O)N2C(C(=O)O)=C(SC3CN(C4=NCCS4)C3)[C@H](C)[C@H]12 [Tebipenem, tebipenem]	< 13000			39,602 (+386) Da	44,794 (−) Da	4950	0.9	2.4	26.1	170	
CO/N=C(\C(=O)N[C@@H]1C(=O)N2C(C(=O)O)=C(COC(N)=O)CS[C@H]12)c1ccco1 [Cefuroxime, cefuroxime]		63,279 (+364) Da	7.5	39,597 (+381) Da	44,794 (−) Da				1180	24	
CC1=C[C@@H]2CN(C(=O)N2OS(=O)(=O)O)[C@@H]1C(N)=O [Durlobactam, durlobactam]	3.97	63192 (+277) Da	145	39,492 (+278) Da	44,794 (−) Da	418000	0.1	6			
NC(=O)[C@@H]1CC[C@@H]2CN1C(=O)N2OS(=O)(=O)O [Avibactam, avibactam]	300	63,180 (+265) Da		39,482 (+266) Da	44,794 (−) Da	26400	0.7	< 0.02	1700	11	
